Data from publication PMC5354814, “In silico and in vitro drug screening identifies new therapeutic approaches for Ewing sarcoma” (Oncotarget, 2016).
“Also recorded” adds a separate entry of the source. Where two headings read alike, the source gives them in different places.

Tests used:
[1] = cited from earlier work
[2] = cited from earlier work; for grossly malformed fetuses: rabbits, days 6-18 of pregnancy
[3] = design: method as in ref 19 (a number printed in a supplementary file, which may have a reference list of its own: not looked up in the article's list); details: rats, up to 15 mg gold/kg p.o.; cited from earlier work
[4] = design: method as in ref 19 (a number printed in a supplementary file, which may have a reference list of its own: not looked up in the article's list); details: 5 and 10 mg gold/kg p.o.; cited from earlier work
platelet = test system: platelet; design: method as in ref 19 (a number printed in a supplementary file, which may have a reference list of its own: not looked up in the article's list); details: 10 µg/mL; cited from earlier work
A673 cells = test: In vivo xenograft mouse model
Procedure: To assess the antitumor activity of auranofin (using an alternative delivery approach), ganetespib and the combination treatments in vivo, we generated a xenograft nude mouse model by injecting A673 cells intramuscularly proximal to the tibia. Based on the dose tolerance and pharmacokinetic studies described above, we administered auranofin at a tolerable daily i.p. dose that achieved adequate systemic drug exposure. Auranofin was administered with a dose of 12 mg/kg through an i.p. injection once a day for 5 days per week, and ganetespib was administered with a dose of 150 mg/kg through an i.v. injection once weekly. Mice that grew palpable tumors were randomized into four groups: vehicle, auranofin-only, ganetespib-only, and the combination.
The guidelines adopted by the Institutional Animal Care and Use Committee of the University of Kansas Medical Center (KUMC-IACUC) were followed in all performed procedures. All experimental protocols were approved by KUMC-IACUC. Homozygous athymic nude (Foxn1nu/Foxn1nu) female mice at the age of 4-weeks were purchased from Jackson Laboratories. After one week, one million A673 cells in PBS (pH = 7.3) were injected into mice. The cells were injected intramuscularly proximal to the tibia and treatment started after 15 days of inoculation. Mice developing palpable tumors were divided into 4 arms and treated for up to 18 days: vehicle (20% Cremophor RH40 and 80% D5W iv and 0.5% HPMC K4M ip), auranofin (12 mg/kg i.p. injection 5 days per week), ganetespib (150 mg/kg i.v. injection once weekly), as well as auranofin and ganetespib combined. Mice were evaluated for overall health and weighed every week. When tumor size impeded mobility, mice were sacrificed and necropsies were performed. Tumors were then dissected, measured and processed for analysis. The liver, kidneys, and spleen were also snap frozen in liquid nitrogen or fixed in 10% neutral buffered formalin and paraffin embedded for toxicity studies. Tissues were then subjected to hematoxylin and eosin (H&E) staining and immunohistochemical staining. […]

[5] = cited from earlier work; for tumors of the renal tubular epithelium: 12-month study, rats
Salmonella = test system: Salmonella; design: method as in ref 18, ref 19; details: cited from earlier work
[6] = design: method as in ref 19 (a number printed in a supplementary file, which may have a reference list of its own: not looked up in the article's list); details: cited from earlier work
human lymphocytes = test system: human lymphocytes; design: method as in ref 19 (a number printed in a supplementary file, which may have a reference list of its own: not looked up in the article's list); details: 1.25 µg auranofin/mL; cited from earlier work
ovarian cancer = test system: ovarian cancer; design: method as in PMID 25502607; details: 3 mg auranofin orally twice per day, 10 patients, 95% CI: 1.3–3.8; cited from earlier work
[7] = cited from earlier work; for LD50: PO
[8] = design: method as in ref 19 (a number printed in a supplementary file, which may have a reference list of its own: not looked up in the article's list); details: 2.5 µg/mL; cited from earlier work
[9] = design: method as in ref 19 (a number printed in a supplementary file, which may have a reference list of its own: not looked up in the article's list); details: rats, 2 - 40 mg auranofin/kg p.o.; cited from earlier work
[10] = design: method as in ref 18, ref 19; details: cited from earlier work
[11] = after 6 months of auranofin 3 mg BID

For CC(=O)OC[C@H]1O[C@@H]([S-])[C@H](OC(C)=O)[C@@H](OC(C)=O)[C@@H]1OC(C)=O.CCP(CC)CC.[Au+] [Auranofin, auranofin], the “mean steady state blood-gold concentration” value ([1]; 6 mg auranofin/day, n=63 patients) is listed as 0.68 ± 0.45 µg/mL, the “labelled gold excreted by day 10” value [1, 11] is listed as 75% and the “labelled gold excreted in feces by day 10” value [1, 11] is listed as 70%. The “labelled gold excreted in the urine by day 10” value [1, 11] was 5%, the mean plasma half-life [1, 11] was 25.5 days and the “mean total body terminal half-life” value [1, 11] was 80.8 days. For the same compound, the “absorbed gold in erythrocytes / red cells” value [1] was “approximately 40%”, the “gold in blood associated with red cells” value [1] was ~40% and the “gold in blood associated with serum proteins” value [1] was 60%. For the same compound, the “gold in plasma / associated with serum proteins” value [1] was 60%, the “labelled gold excreted six months after single dose” value [1] was “approximately 99.6%” and the “labelled gold retained in the body six months after single dose” value [1] was 0.4%. The “time to steady state blood gold levels” value ([1]; clinical studies) was “about 3 months”, the “time to steady state blood-gold concentrations” value ([1]; clinical studies) was “about three m onths” and the “fraction of gold absorbed after oral administration” value ([1]; human, oral) was ~25%. The “mean terminal body half-life” value ([1]; n = 5) was 80 days, the “mean terminal plasma half-life of auranofin gold at steady state” value ([1]; n = 5) was 26 days and the “labelled gold excreted by day 10” value ([1]; single 6 mg oral dose) was 77%. For the same compound, the “labelled gold excreted in the feces by day 10” value ([1]; single 6 mg oral dose) was 73%, the “labelled gold excreted in the urine by day 10” value ([1]; single 6 mg oral dose) was 4% and the “mean plasma terminal half-life” value ([1]; single 6 mg oral dose) was 17 days. For the same compound, the “mean total body terminal half-life” value ([1]; single 6 mg oral dose) was 58 days, the “absorbed gold excreted in urine” value ([1]; single dose) was “About 60%” and the “administered dose excreted in urine” value ([1]; single dose) was 15%. For the same compound, the teratogenicity in rabbits ([2]; oral 0.5, 3 and 6 mg/kg/day) was “teratogenic potential”, the grossly malformed fetuses ([2]; 0.5 mg/kg/day (low)) was 1.9% and the grossly malformed fetuses ([2]; 3 mg/kg/day (middle)) was 4.7%. The grossly malformed fetuses ([2]; 6 mg/kg/day (high)) was 15.5%, the “induction of liver enzyme activity” value [3] was “failed to induce liver enzyme activity” and the “low-grade oxazolone-induced contact sensitivity” value [4] was “stimulated”. For the same compound, the “epinephrine-, ADP-, or collagen-induced platelet aggregation” value (platelet) was “potent”, the “survival rate versus control group” value (A673 cells; auranofin 12 mg/kg i.p. 5 days per week, ganetespib 150 mg/kg i.v. once weekly, p < 0.05) was “significantly increased the survival rate” and the “toxicity or adverse effects in xenograft study” value (A673 cells; auranofin 12 mg/kg i.p., ganetespib 150 mg/kg i.v.) was “did not show any noticeable toxicity or adverse effects”. For the same compound, the “tumors of the renal tubular epithelium” value ([5]; 3.6 mg/kg/day) was “did not”, the “tumors of the renal tubular epithelium” value ([5]; 23 mg/kg/day) was “tum ors of the renal tubular epithelium; also recorded: developed adenomas of the renal tubular epithelium” and the “frequency of renal tubular cell karyomegaly and cytomegaly and renal adenoma” value ([5]; 24-month study in rats, auranofin 1.0 or 2.5 mg/kg/day orally, gold sodium thiomalate 2 or 6 mg/kg twice weekly) was “significant incr ease”. For the same compound, the mutation effects (Salmonella) was “no m utation effects”, the tissue gold concentration ([6]; rat tissues) was “highest in the kidneys” and the “absorption after oral dosing” value ([6]; rat) was 19%. The “blood gold in plasma proteins” value ([6]; rat) was 35%, the “blood gold in red blood cells” value ([6]; rat) was 65% and the urinary excretion ([6]; rat) was 10%. For the same compound, the elimination in feces ([6]; single oral dose, within 21 days, rat) was 79%, the “ADCC of human lymphocytes” value (human lymphocytes) was “reduced” and the “median PFS” value (ovarian cancer) was 2.8 months. The LD50 ([7]; Mouse B6C3F1, F) was 187 mg/kg, the LD50 ([7]; Mouse B6C3F1, M) was 190 mg/kg and the LD50 ([7]; Mouse CF1, F) was 225 mg/kg. The “acute oral LD50” value ([7]; adult mice) was 310 mg/kg, the “pokeweed mitogen-induced immunoglobulin production” value [8] was “inhibited” and the antidiuretic effect [9] was “slight antidiuretic effect”. For the same compound, the mutation effects [10] was “no m utation effects”.
